What all share (experiment): NCI-60 cell line screen, 48 h
Experiment [1] relates to A549 NSCLC.
For experiment [2], the system named is BT-549 breast.
Experiment [3] deals with CAKI-1 renal.
Experiment [4] relates to COLO 205 colon.
The subject of experiment [5] is DU-145 prostate.
The subject of experiment [6] is EKVX NSCLC.
Experiment [7] relates to HCT-116 colon.
The test system of experiment [8] is HOP-92 NSCLC.
The test system of experiment [9] is HS 578T breast.
For experiment [10], the system named is K-562 leukemia.
Experiment [11] concerns MALME-3M melanoma.
Experiment [12] deals with MDA-MB-231 breast.
In experiment [13] the test system is MDA-N.
The test system of experiment [14] is RXF 393 renal.
For experiment [15], the system named is LOX IMVI melanoma.
The test system of experiment [16] is SF-268 CNS.
The test system of experiment [17] is T-47D breast.

The structures appear in SMILES notation.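 Where inhibition never reached the appropriate level, the endpoint shown equals the highest concentration tested. Otherwise, values were interpolated linearly from a five-concentration, 48-hour dose response in 96-well plates. GI50 is the concentration that inhibits growth by half. TGI is the concentration that stops growth completely.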 *1 amine or outer side, *2 acyl side, *3 side chain or, on linkers, in order; H or OH if unused. Where a SMILES comes first, the peptide text is derived from it. Bridges are numbered along the chain shown (N, C = ends). [ ]: non-standard residue; d: D form. The star is where a group is joined. X34 = O=C(C(CCCCNO[*:3])N[*:1])[*:2]; Fmoc = O=C(OCC1c2ccccc2-c2ccccc21)*

As to `c1ccc(C(=NCCC2CNc3ccccc32)c2ccccc2)cc1` (stereo not given), the TGI in experiment [1], in experiment [2], in experiment [3], in [4], in [5] and in experiment [6] was more than 100 µM in each case. The TGI in experiment [7], in [8], in experiment [9], in experiment [10], in [11] and in experiment [12] was more than 100 µM in each case. Further, the TGI in [13] and in experiment [14] was more than 100 µM throughout.
In the case of `NC(=O)CNC(=O)C1CCCN1C(=O)C1CCCCNOC(=O)CCC(NC(=O)OCC2c3ccccc3-c3ccccc32)C(=O)NC(Cc2c[nH]c3ccccc23)C(=O)N1` (stereo not given) (Fmoc-EW[X34]PG-NH2; ester 1-3; configuration not given here), the TGI in experiment [1], in experiment [2], in [4], in experiment [5], in [6] and in experiment [7] was more than 100 µM in each case. Moreover, the TGI in experiment [8], in experiment [9], in experiment [10], in experiment [15], in experiment [11] and in experiment [12] was more than 100 µM throughout. Moreover, the TGI in experiment [14], in [16] and in experiment [17] was more than 100 µM each time.
With `COc1ccc(/C(=C/n2ccnc2)C(O)c2ccc(OC)c(OC)c2)cc1OC` (stereo not given), the TGI in experiment [4], in experiment [8], in [10], in [15], in experiment [14] and in experiment [16] was more than 100 µM in each case.
Turning to `CC(=O)O[C@@]12CO[C@@H]1C[C@@H](O)[C@@]1(C)C(=O)[C@H](O)C3=C(C)[C@@H](OC(=O)[C@H](O)[C@@H](NC(=O)c4ccccc4)c4ccccc4)C[C@@](O)([C@@H](OC(=O)c4ccccc4)C12)C3(C)C` (stereo not given in full), the TGI in experiment [1] is more than 100 µM; in experiment [2], more than 100 µM; in experiment [3], more than 100 µM; in experiment [4] it was 0.176 µM; in experiment [5], more than 100 µM; in experiment [6], more than 100 µM. Besides, the TGI in [7] was 0.152 µM; in [10], more than 100 µM; in experiment [15], 41.9 µM; in [12], 43.8 µM; in experiment [14], 35.4 µM; in [16], more than 100 µM. In experiment [17], the TGI was more than 100 µM.
As for `O=C(NC(Cc1cnc[nH]1)C(=O)N1CCCC1)C1CCCC1` (stereo not given), the TGI in experiment [1], in [2], in [3], in [4], in experiment [5] and in experiment [6] was more than 100 µM throughout. Besides, the TGI in [7], in experiment [8], in experiment [9], in [10], in [15] and in [11] was more than 100 µM each time. Moreover, the TGI in experiment [12], in experiment [13] and in experiment [14] was more than 100 µM throughout.
Turning to `O=c1cc(-c2ccco2)[nH]c2cc3c(cc12)OCO3`, the TGI in [1] was more than 100 µM; in experiment [4] it was 78.5 µM; in experiment [6] it was more than 100 µM; in [7] it was more than 100 µM; in [10], more than 100 µM; in experiment [15] it was more than 100 µM. The TGI in experiment [11] was more than 100 µM; in experiment [14] it was 92.8 µM; in [16] it was more than 100 µM. Further, the GI50 in experiment [7] is 39.9 µM; in experiment [14], 24.9 µM; in experiment [16] it was 42.1 µM.
`COC(=O)C(Br)C1CCc2ccccc21` (stereo not given): the TGI in [1], in experiment [3], in experiment [4], in experiment [7], in experiment [8] and in [10] was more than 100 µM in each case. In addition, the TGI in experiment [15], in experiment [11] and in [16] was more than 100 µM each time.
Turning to `O=C1c2ccccc2C(=O)C1C(c1ccc(F)cc1)C1C(=O)c2ccccc2C1=O`, the TGI in [1], in experiment [3], in experiment [4], in experiment [6], in [7] and in [8] was more than 100 µM each time. Also, the TGI in [10] is more than 100 µM; in experiment [15], more than 100 µM; in [11], more than 100 µM; in [14], 71.3 µM; in experiment [16], more than 100 µM.
With `O=S(=O)(SC1=NCCN1)c1cccc2ccccc12`, the TGI is 67.8 µM in [1]; 76 µM in experiment [2]; 59.9 µM in [3]; 34.4 µM in experiment [4]; more than 100 µM in experiment [5]; more than 100 µM in [6]. Moreover, the TGI in experiment [7] was more than 100 µM; in [8], more than 100 µM; in experiment [10], 63.5 µM; in experiment [15] it was more than 100 µM; in experiment [11], more than 100 µM; in experiment [12] it was 45.6 µM. Besides, the TGI was determined as 39.4 µM in experiment [13] and 71.8 µM in experiment [14].
Regarding `Nc1ccc(C23CC4CC(C2)CC(c2ccc(N)cc2)(C4)C3)cc1`, the TGI in [1] is more than 100 µM; in experiment [2], more than 100 µM; in experiment [3], more than 100 µM; in experiment [4], 52.5 µM; in experiment [5], more than 100 µM; in [6], 81.6 µM. Besides, the TGI in experiment [7] is more than 100 µM; in experiment [8], more than 100 µM; in [10], 36.8 µM; in [15], more than 100 µM; in experiment [13] it was more than 100 µM; in experiment [16], more than 100 µM.
For the compound `Cc1ccc2c(ccc(/C=C\c3cc(C)c4cccnc4c3O)[n+]2C)c1`, the TGI in experiment [1] was 40.9 µM; in experiment [3] it was 25.5 µM; in [4] it was 71.9 µM; in experiment [6] it was 75 µM; in experiment [7] it was 19.6 µM; in experiment [10], more than 100 µM. For the same compound, the TGI in [15] is 56.2 µM; in [11], 25.1 µM; in experiment [16], 47.6 µM.

For the origin of these results see PubChem BioAssay (NCI).
